Measurements reported in article PMC5375154, “Atypical protein disulfide isomerases (PDI): Comparison of the molecular and catalytic properties of poplar PDI-A and PDI-M with PDI-L1A” (PLoS ONE, 2017).

Columns and labels:
PDI-A (PtPDI-A) = target: T1, PDI-A (PtPDI-A) (Populus trichocarpa, UniProt B9HQP9); assay: UV-visible absorption, iron and sulfide quantification, size-exclusion chromatography; type: binding; details: as isolated after E. coli expression, anaerobic purification; pH 8.0; cluster proposed to bridge a dimer; cluster type not definitively assigned
T1 construct: gene POPTR_009G004500; pET-15b, His-tagged; E. coli BL21(DE3) pSBET; purified anaerobically; ca 15 kDa; dimeric and probable octameric forms; WCKHC active site
T1 sequence (B9HQP9 27-147): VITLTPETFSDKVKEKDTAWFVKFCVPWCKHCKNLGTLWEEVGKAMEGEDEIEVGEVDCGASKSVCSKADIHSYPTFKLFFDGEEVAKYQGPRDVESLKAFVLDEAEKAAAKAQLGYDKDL

PDI-M (PtPDI-M) = target: T2, PDI-M (PtPDI-M) (Populus trichocarpa, UniProt B9IAL5); assay: NADPH/AtNTRB-coupled DTNB reduction, absorbance at […] nm; type: biochemical; details: 200 μM NADPH, 2 μM AtNTRB, 100 μM DTNB, 0.2 μM PDI, pH 8.0, 25°C
T2 construct: gene POPTR_014G160000; pET-15b, His-tagged; E. coli BL21(DE3) pSBET; a°-a-b organisation
T2 sequence (B9IAL5 25-434): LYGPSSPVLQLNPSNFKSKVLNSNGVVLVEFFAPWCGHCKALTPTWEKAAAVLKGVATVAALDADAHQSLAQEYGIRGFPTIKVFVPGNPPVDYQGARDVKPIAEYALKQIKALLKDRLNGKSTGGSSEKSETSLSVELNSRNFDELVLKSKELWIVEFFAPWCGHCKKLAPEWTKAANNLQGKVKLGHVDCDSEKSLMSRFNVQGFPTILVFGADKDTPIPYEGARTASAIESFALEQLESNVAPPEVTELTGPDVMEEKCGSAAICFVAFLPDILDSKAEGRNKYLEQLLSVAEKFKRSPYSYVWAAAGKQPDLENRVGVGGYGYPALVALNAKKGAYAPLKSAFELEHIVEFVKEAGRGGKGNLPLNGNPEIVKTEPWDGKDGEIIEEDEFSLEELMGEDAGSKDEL

Compound	UV-visible absorption, iron and sulfide quantification, size-exclusion chromatog (PDI-A (PtPDI-A))	DTNB reduction activity (PDI-M (PtPDI-M))
[S]1[Fe][S][Fe]1 [[Fe2S2] cluster]	results could be consistent with PDI-A binding a [Fe2S2] cluster into a dimer	–
O=C(O)c1cc(SSc2ccc([N+](=O)[O-])c(C(=O)O)c2)ccc1[N+](=O)[O-] [DTNB]	–	PDI-L1a was more efficient than PDI-M and PDI-A was inactive (Fig 2C)
